From patent US5786344A, “Camptothecin drug combinations and methods with reduced side effects” (priority 1995, dated 1998)
“Also recorded” adds a separate entry of the source.

Experiments:
[1] = Phase I toxicity evaluation (CALGB expanded toxicity criteria); format: in vivo, human
Procedure: […]. The detailed examples presented in the present application reflect treatment on 21 patients.
Significant gastrointestinal toxicity was first manifested at the second dose level (120 mg/m2). […] […]. […] Two of these cases were found at exploratory laparotomy to be due to progression of disease and one resolved after conservative therapy, but was likely due to progression of disease. […] In a few patients, however, high doses of ondansetron were required to achieve relief.
Toxicity assessment was done according to the CALGB expanded toxicity criteria. Patients who experienced>grade 2 diarrhea at any time while on study were begun on loperamide 4 mg p.o. followed by 2 mg p.o. after every stool up to a total dose of 16 mg/day. If loperamide was unsuccessful in controlling diarrhea, patients were begun on octreotide acetate 100-600 μg for 2-3 doses per day. Stool collections were also obtained to test for any co-existing infection. […]

[2] = in vivo; conditions: rat, in vivo, iv, 20 mg/kg
From the text: (§1) Of these 2 types of inducers, phenobarbital has been used as an […] and a mildly sedative agent in humans. The inventors' objective here was to investigate the effect of phenobarbital administration on the glucuronidation of SN-38 in rats.
(§2) Animal protocol: Female Wistar rats (~200 gm) having a permanent catheter installed in the right jugular vein were obtained from Charles River Breeding Laboratories (Wilmington, Mass.).
(§3) Three rats were given a single intraperitoneal dose of 100 mg/kg phenobarbital in physiological saline followed by 0.1% (w/v) phenobarbital in drinking water for four days. […] After each sample the catheter was flushed with an equal volume of physiologic saline. The samples were immediately centrifuged at 2500×g for 10 minutes and the plasma obtained was stored at -70° C. until analysis.
(§4) Data Analysis: The plasma concentration-time profile of the control and pretreated groups of rats were analyzed using non-compartmental methods (PCNONLIN, SCI, Lexington, Ky.). […] The nonparametric Mann-Whitney test was used to test for differences in AUC between the control and pretreated groups.

[3] = test system: UDP-GT; experiment: in vivo
From the text: as §1, §2, §3, §4

[4] = target: T1, p-glycoprotein (Homo sapiens, UniProt P08183); experiment: in vitro; format: binding
T1 construct: membrane vesicles from the multidrug resistant breast tumor cell line; endogenous in cells; host or cells: MCF-7/Adr (multidrug resistant human breast cancer cell line), membrane vesicles
From the text: FIG. 5. […]. Membrane vesicles from the multidrug resistant human breast cancer tumor cell line […] were used. […].

[5] = test system: tumors; conditions: preclinical and clinical tumors; cited from earlier work
[6] = human, in vivo; cited from earlier work
[7] = cited from earlier work

T1 sequence (P08183 whole entry): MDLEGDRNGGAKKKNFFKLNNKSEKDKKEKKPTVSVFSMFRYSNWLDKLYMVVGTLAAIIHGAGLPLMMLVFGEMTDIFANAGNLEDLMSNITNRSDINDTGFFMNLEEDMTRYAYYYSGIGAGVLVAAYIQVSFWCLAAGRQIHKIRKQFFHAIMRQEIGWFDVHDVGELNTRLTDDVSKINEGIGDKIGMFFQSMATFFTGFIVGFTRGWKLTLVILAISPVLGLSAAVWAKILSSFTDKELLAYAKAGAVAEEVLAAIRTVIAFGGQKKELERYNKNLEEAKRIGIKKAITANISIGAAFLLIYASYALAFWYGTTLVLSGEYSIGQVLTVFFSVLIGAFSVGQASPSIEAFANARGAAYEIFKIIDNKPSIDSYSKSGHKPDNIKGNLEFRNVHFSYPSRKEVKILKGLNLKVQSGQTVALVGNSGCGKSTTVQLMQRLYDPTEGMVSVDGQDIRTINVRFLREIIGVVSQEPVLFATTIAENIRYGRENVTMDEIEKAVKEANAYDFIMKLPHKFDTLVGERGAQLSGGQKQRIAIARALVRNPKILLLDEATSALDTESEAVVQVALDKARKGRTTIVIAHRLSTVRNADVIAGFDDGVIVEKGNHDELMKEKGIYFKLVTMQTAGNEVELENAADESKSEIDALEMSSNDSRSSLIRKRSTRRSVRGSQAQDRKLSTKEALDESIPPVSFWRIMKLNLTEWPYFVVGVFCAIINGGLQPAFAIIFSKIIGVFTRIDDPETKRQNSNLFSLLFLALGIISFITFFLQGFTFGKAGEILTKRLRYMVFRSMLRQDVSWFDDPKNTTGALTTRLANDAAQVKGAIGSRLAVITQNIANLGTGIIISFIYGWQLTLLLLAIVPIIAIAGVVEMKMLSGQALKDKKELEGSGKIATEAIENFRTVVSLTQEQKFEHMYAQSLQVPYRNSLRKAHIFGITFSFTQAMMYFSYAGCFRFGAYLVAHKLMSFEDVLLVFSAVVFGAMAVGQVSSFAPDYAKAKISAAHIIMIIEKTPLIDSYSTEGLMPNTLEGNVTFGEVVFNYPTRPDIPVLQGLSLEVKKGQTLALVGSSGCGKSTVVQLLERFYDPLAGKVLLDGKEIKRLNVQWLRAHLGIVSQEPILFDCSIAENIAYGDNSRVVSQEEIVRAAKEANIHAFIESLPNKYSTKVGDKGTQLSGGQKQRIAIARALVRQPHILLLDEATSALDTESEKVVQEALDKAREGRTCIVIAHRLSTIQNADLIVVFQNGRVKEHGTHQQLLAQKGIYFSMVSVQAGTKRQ

Compound: CCc1c2c(nc3ccc(OC(=O)N4CCC(N5CCCCC5)CC4)cc13)-c1cc3c(c(=O)n1C2)COC(=O)[C@]3(O)CC [CPT-11, 7-ethyl-10-[4-(1-piperidino)-1-piperidino)carbonyloxycamptot hecin]
- myelosuppression ([1]; 100 mg/m2): not a significant toxicity
- diarrhea ([1]; 100 mg/m^2): No diarrhea was observed
- myelosuppression ([1]; 120 mg/m2): dose-limiting in one patient
- patients developing grade 3-4 diarrhea ([1]; 120 mg/m^2): 34%
- myelosuppression ([1]; 145 mg/m2, ameliorated by prophylactic G-CSF): dose-limiting in two patients
- neutropenia >grade 1 ([1]; 145 mg/m2 with G-CSF): No cases
- patients developing grade 3-4 diarrhea ([1]; 145 mg/m^2): 50%
- neutropenic fevers ([1]; 175 mg/m2, first two patients, despite prophylactic G-CSF): hospitalized with neutropenic fevers
- patients developing grade 3-4 diarrhea ([1]; 175 mg/m^2): 100%
- major toxicities ([1]; 100-175 mg/m2): myelosuppression, diarrhea, and abdominal cramping pain
- abdominal cramping ([1]; Patients 4 (120 mg/m2), 21 and 15 (145 mg/m2)): grade 3 abdominal cramping
- neutropenic fevers ([1]; Patients 13 and 16, 145 mg/m2, cycle 1): hospitalized with neutropenic fevers
- small bowel obstructions ([1]; likely due to progression of disease): Three patients developed small bowel obstructions
- nausea and vomiting ([1]; majority of patients, doses >120 mg/m2): grade 1-2 nausea and vomiting
- abdominal cramps ([1]; other patients): Four other patients had mild (grade 1) abdominal cramps
- AUC at 6 h ([2]; AUC CPT-11, control, CPT-11 20 mg/kg iv, n = 4, 0-6 h): 7700 ± 2670 ng·h/mL
- AUC at 6 h ([2]; AUC CPT-11, phenobarbital pretreated, CPT-11 20 mg/kg, n = 2): 3060 ng·h/mL
- decrease in availability ([3]; UDP-GT induction by phenobarbital): ~2 fold
- decline in AUC ([3]; phenobarbital pretreated): 60%
- Change in AUC CPT-11 ([3]; phenobarbital pretreated vs control): -60.29%
- substrate of p-glycoprotein [4]: substrates of p-glycoprotein
- inhibition at 10 µM ([4]; human, mcf-7/adr membrane vesicles): 80%
- antitumor activity [5]: significant activity in a broad spectrum of in vitro and in vivo tumor models; also recorded: antitumor activity in phase II trials
- DLT in Phase I studies in Japan and Europe/US [6]: either myelosuppression or diarrhea
- route of excretion ([7]; animal studies): equally excreted into bile and urine
- dose eliminated in the urine ([7]; rats, % of CPT-11 dose): about 20%
